Data from patent US12281122B1, “PI3K inhibitors” (Cogent Biosciences, Inc., priority 2023, dated 2025).

Key:
[1] = tested on: T47D (PI3Kα-H1047R) cell line; experiment: HTRF phospho-AKT(S473) cell assay in T47D cells; type: cell-based, human
Outline: (§1)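 T47D: RPMI + 10% FBS + 0.2 units/mL insulin, top 5 μM. SKBR3: McCoy's 5A + 10% FBS, top 10 μM, 70 ng/ml PDGF-BB last 15 min. Both: 12-pt 1:3, 2 h, 37° C, max 0.5% DMSO; HTRF pAKT(S473); IC50.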

[2] = tested on: SKBR3 (PI3Kα-Wild Type) cell line; experiment: HTRF phospho-AKT(S473) cell assay in SKBR3 cells; type: cell-based, human
Outline: as §1

[3] = Homo sapiens; HTRF phospho-AKT(S473), T47D (PI3Kα-H1047R) cells, 2 hours compound incubation
[4] = Homo sapiens, SK-BR-3; HTRF phospho-AKT(S473), SKBR3 (PI3Kα-Wild Type) cells, 2 hours compound incubation, PDGF-BB stimulated
[5] = Homo sapiens; T47D (PI3Kα-H1047R) cells, HTRF phospho-AKT(S473), 2 hours compound incubation
[6] = Homo sapiens, SK-BR-3; SKBR3 (PI3Kα-Wild Type) cells, HTRF phospho-AKT(S473), 2 hours compound incubation, PDGF-BB stimulated

Row | IC50 [1, 3] | IC50 [2, 4] | IC50 [1, 5] | IC50 [2, 6] | SMILES
1 | < 250 nM | 1000 to 5000 nM | – | – | Cc1cc([C@@H](C)Nc2ccc(Cl)nc2C(=O)NS(C)(=O)=O)c2nc(N3C[C@@H]4C(c5cnc(C(F)F)nc5)[C@@H]4C3)n(C)c(=O)c2c1 (stereo partly drawn) [Compound 536, 6-chloro-3-(((1R)-1-(2-((1R,5S)-6-(2-(difluoromethyl)pyrimidin-5-yl)-3-azabicyclo[3.1.0]hexan-3-yl)-3,6-dimethyl-4-oxo-3,4-dihydroquinazolin-8-yl)ethyl)amino)-N-(methylsulfonyl) picolinamide]
2 | 250 to 500 nM | ≥ 5000 nM | – | – | Cc1cc([C@@H](C)Nc2ccc(Cl)nc2C(=O)NS(C)(=O)=O)c2nc(N3CCN4C[C@H](n5cc(C)cn5)C[C@H]4C3)n(C)c(=O)c2c1 [Compound 680, 6-chloro-3-(((R)-1-(3,6-dimethyl-2-((7R,8aS)-7-(4-methyl-1H-pyrazol-1-yl)hexahydropyrrolo[1,2-a]pyrazin-2(1H)-yl)-4-oxo-3,4-dihydroquinazolin-8-yl)ethyl)amino)-N-(methylsulfonyl) picolinamide]
3 | – | – | < 250 nM | 1000 to 5000 nM | Cc1cc([C@@H](C)Nc2ccc(Cl)nc2C(=O)NS(C)(=O)=O)c2nc(N3CCC(n4cc(-c5cccnc5)cn4)CC3)n(C)c(=O)c2c1 [Compound 234, (R)-6-chloro-3-((1-(3,6-dimethyl-4-oxo-2-(4-(4-(pyridin-3-yl)-1H-pyrazol-1-yl)piperidin-1-yl)-3,4-dihydroquinazolin-8-yl)ethyl)amino)-N-(methylsulfonyl) picolinamide]
4 | – | – | < 250 nM | ≥ 5000 nM | Cc1cc([C@@H](C)Nc2ccc(Cl)nc2C(=O)NS(C)(=O)=O)c2nc(N3CCC(c4nn(C)cc4N(C)C)CC3)n(C)c(=O)c2c1 [Compound 308, (R)-6-chloro-3-((1-(2-(4-(4-(dimethylamino)-1-methyl-1H-pyrazol-3-yl)piperidin-1-yl)-3,6-dimethyl-4-oxo-3,4-dihydroquinazolin-8-yl)ethyl)amino)-N-(methylsulfonyl) picolinamide]
5 | – | – | < 250 nM | 1000 to 5000 nM | CC(=O)N1CCC2(CC1)CCN(c1nc3c([C@@H](C)Nc4ccc(Cl)nc4C(=O)NS(C)(=O)=O)cc(C)cc3c(=O)n1C)CC2 [Compound 280, (R)-3-((1-(2-(9-acetyl-3,9-diazaspiro[5.5]undecan-3-yl)-3,6-dimethyl-4-oxo-3,4-dihydroquinazolin-8-yl)ethyl)amino)-6-chloro-N-(methylsulfonyl) picolinamide]
6 | – | – | 250 to 500 nM | 1000 to 5000 nM | Cc1cc([C@@H](C)Nc2ccc(Cl)nc2C(=O)NS(C)(=O)=O)c2nc(N3C[C@@H]4[C@H](C3)[C@H]4c3ccc(C#N)cn3)n(C)c(=O)c2c1 [Compound 392, 6-chloro-3-(((R)-1-(2-((1R,5S,6R)-6-(5-cyanopyridin-2-yl)-3-azabicyclo[3.1.0]hexan-3-yl)-3,6-dimethyl-4-oxo-3,4-dihydroquinazolin-8-yl)ethyl)amino)-N-(methylsulfonyl) picolinamide]
7 | – | – | < 250 nM | 1000 to 5000 nM | Cc1cc([C@@H](C)Nc2ccc(Cl)nc2C(=O)NS(C)(=O)=O)c2nc(N3CCN(c4ccc(C#N)cc4)CC3)n(C)c(=O)c2c1 [Compound 190, (R)-6-chloro-3-((1-(2-(4-(4-cyanophenyl)piperazin-1-yl)-3,6-dimethyl-4-oxo-3,4-dihydroquinazolin-8-yl)ethyl)amino)-N-(methylsulfonyl) picolinamide]
8 | – | – | 250 to 500 nM | 1000 to 5000 nM | Cc1cc([C@@H](C)Nc2ccc(Cl)nc2C(=O)NS(C)(=O)=O)c2nc(N3C[C@H]4C[C@@H](c5cnn(C)c5)[C@@H]3C4)n(C)c(=O)c2c1 [Compound 321, 6-chloro-3-(((R)-1-(3,6-dimethyl-2-((1S,4S,6RS)-6-(1-methyl-1H-pyrazol-4-yl)-2-azabicyclo[2.2.1]heptan-2-yl)-4-oxo-3,4-dihydroquinazolin-8-yl)ethyl)amino)-N-(methylsulfonyl) picolinamide]
9 | 500 to 1000 nM | ≥ 5000 nM | – | – | Cc1cc([C@@H](C)Nc2ccc(Cl)nc2C(=O)NS(C)(=O)=O)c2nc(N3CCC(c4cc(C5CC5)[nH]n4)CC3)n(C)c(=O)c2c1 [Compound 511, (R)-6-chloro-3-((1-(2-(4-(5-cyclopropyl-1H-pyrazol-3-yl)piperidin-1-yl)-3,6-dimethyl-4-oxo-3,4-dihydroquinazolin-8-yl)ethyl)amino)-N-(methylsulfonyl) picolinamide]
10 | < 250 nM | 1000 to 5000 nM | – | – | Cc1cc([C@@H](C)Nc2ccc(Cl)nc2C(=O)NS(C)(=O)=O)c2nc(N3CCC(c4cnc(C)o4)CC3)n(C)c(=O)c2c1 [Compound 521, (R)-6-chloro-3-((1-(3,6-dimethyl-2-(4-(2-methyloxazol-5-yl)piperidin-1-yl)-4-oxo-3,4-dihydroquinazolin-8-yl)ethyl)amino)-N-(methylsulfonyl) picolinamide]
11 | < 250 nM | 1000 to 5000 nM | – | – | Cc1cnc(C2CCN(c3nc4c([C@@H](C)Nc5ccc(Cl)nc5C(=O)NS(C)(=O)=O)cc(Cl)cc4c(=O)n3C)CC2)cn1 [Compound 442, (R)-6-chloro-3-((1-(6-chloro-3-methyl-2-(4-(5-methylpyrazin-2-yl)piperidin-1-yl)-4-oxo-3,4-dihydroquinazolin-8-yl)ethyl)amino)-N-(methylsulfonyl) picolinamide]
12 | 250 to 500 nM | ≥ 5000 nM | – | – | Cc1cc([C@@H](C)Nc2ccc(Cl)nc2C(=O)NS(C)(=O)=O)c2nc(-c3ccc4oc(C)nc4c3)n(C)c(=O)c2c1 [Compound 821, (R)-6-chloro-3-((1-(3,6-dimethyl-2-(2-methylbenzo[d]oxazol-5-yl)-4-oxo-3,4-dihydroquinazolin-8-yl)ethyl)amino)-N-(methylsulfonyl) picolinamide]
13 | < 250 nM | 1000 to 5000 nM | – | – | Cc1cc([C@@H](C)Nc2ccc(Cl)nc2C(=O)NS(C)(=O)=O)c2nc(N3CCN(c4ncc(F)cn4)CC3)n(C)c(=O)c2c1 [Compound 533, (R)-6-chloro-3-((1-(2-(4-(5-fluoropyrimidin-2-yl)piperazin-1-yl)-3,6-dimethyl-4-oxo-3,4-dihydroquinazolin-8-yl)ethyl)amino)-N-(methylsulfonyl) picolinamide]
14 | – | – | < 250 nM | 1000 to 5000 nM | Cc1cc([C@@H](C)Nc2ccc(Cl)nc2C(=O)NS(C)(=O)=O)c2nc(N3C[C@@H]4C[C@H]3CN4c3cnn(C)c3)n(C)c(=O)c2c1 [Compound 201, 6-chloro-3-(((R)-1-(3,6-dimethyl-2-((1S,4S)-5-(1-methyl-1H-pyrazol-4-yl)-2,5-diazabicyclo[2.2.1]heptan-2-yl)-4-oxo-3,4-dihydroquinazolin-8-yl)ethyl)amino)-N-(methylsulfonyl) picolinamide]
15 | – | – | < 250 nM | 1000 to 5000 nM | Cc1cc([C@@H](C)Nc2ccc(Cl)nc2C(=O)NS(C)(=O)=O)c2nc([C@@H]3CCCN(c4cc[nH]n4)C3)n(C)c(=O)c2c1 (relative stereo) [Compound 322, 3-(((R)-1-(2-((R*)-1-(1H-pyrazol-3-yl)piperidin-3-yl)-3,6-dimethyl-4-oxo-3,4-dihydroquinazolin-8-yl)ethyl)amino)-6-chloro-N-(methylsulfonyl) picolinamide]
16 | 250 to 500 nM | 1000 to 5000 nM | – | – | Cc1cc([C@@H](C)Nc2ccc(Cl)nc2C(=O)NS(C)(=O)=O)c2nc(-c3ccc4c(c3)ncn4C)n(C)c(=O)c2c1 [Compound 833, (R)-6-chloro-3-((1-(3,6-dimethyl-2-(1-methyl-1H-benzo[d]imidazol-5-yl)-4-oxo-3,4-dihydroquinazolin-8-yl)ethyl)amino)-N-(methylsulfonyl) picolinamide]
17 | 1000 to 5000 nM | ≥ 5000 nM | – | – | Cc1cc([C@@H](C)Nc2ccc(Cl)nc2C(=O)NS(C)(=O)=O)c2nc(N3CCC[C@@H](c4ncc(Cl)cn4)C3)n(C)c(=O)c2c1 (relative stereo) [Compound 588, 6-chloro-3-(((R)-1-(2-((R*)-3-(5-chloropyrimidin-2-yl)piperidin-1-yl)-3,6-dimethyl-4-oxo-3,4-dihydroquinazolin-8-yl)ethyl)amino)-N-(methylsulfonyl) picolinamide]
18 | – | – | < 250 nM | 1000 to 5000 nM | Cc1cc([C@@H](C)Nc2ccc(Cl)nc2C(=O)NS(C)(=O)=O)c2nc(N3CC[C@H](Oc4cnn(CC(F)(F)F)c4)C3)n(C)c(=O)c2c1 [Compound 330, 6-chloro-3-(((R)-1-(3,6-dimethyl-4-oxo-2-((S)-3-((1-(2,2,2-trifluoroethyl)-1H-pyrazol-4-yl)oxy)pyrrolidin-1-yl)-3,4-dihydroquinazolin-8-yl)ethyl)amino)-N-(methylsulfonyl) picolinamide]
19 | 250 to 500 nM | ≥ 5000 nM | – | – | Cc1cc([C@@H](C)Nc2ccc(Cl)nc2C(=O)NS(C)(=O)=O)c2nc(N3CCC(c4nc(C(F)(F)F)n(C)n4)CC3)n(C)c(=O)c2c1 [Compound 458, (R)-6-chloro-3-((1-(3,6-dimethyl-2-(4-(1-methyl-5-(trifluoromethyl)-1H-1,2,4-triazol-3-yl)piperidin-1-yl)-4-oxo-3,4-dihydroquinazolin-8-yl)ethyl)amino)-N-(methylsulfonyl) picolinamide]
20 | – | – | < 250 nM | 1000 to 5000 nM | Cc1cc([C@@H](C)Nc2ccc(Cl)nc2C(=O)NS(C)(=O)=O)c2nc(-c3cnn(-c4ccccc4)c3)n(C)c(=O)c2c1 [Compound 171, (R)-6-chloro-3-((1-(3,6-dimethyl-4-oxo-2-(1-phenyl-1H-pyrazol-4-yl)-3,4-dihydroquinazolin-8-yl)ethyl)amino)-N-(methylsulfonyl) picolinamide]
